Measurements from ChEMBL document CHEMBL4480377, “Synthesis and biological evaluation of zinc chelating compounds as metallo-β-lactamase inhibitors” (Medchemcomm, 2019).

Legend:
[1] = target: Beta-lactamase VIM-2 (Pseudomonas aeruginosa) (UniProt Q9K2N0); assay: Inhibition of beta-lactamase VIM-2 in Pseudomonas aeruginosa assessed as potentiation of meropenem-induced antibacterial activity by measuring meropenem MIC at 125 uM after 20 hrs by broth microdilution assay (meropenem alone = 32 to 64 mg/L)
[2] = target: Metallo-beta-lactamase type 2 (Klebsiella pneumoniae) (UniProt C7C422); assay: Inhibition of NDM1 in Pseudomonas aeruginosa assessed as potentiation of meropenem-induced antibacterial activity by measuring meropenem MIC at 31 uM after 20 hrs by broth microdilution assay (meropenem alone = 32 to 64 mg/L)
Metallo-beta-lactamase type 2 (Klebsiella pneumoniae), sequence (C7C422 whole entry): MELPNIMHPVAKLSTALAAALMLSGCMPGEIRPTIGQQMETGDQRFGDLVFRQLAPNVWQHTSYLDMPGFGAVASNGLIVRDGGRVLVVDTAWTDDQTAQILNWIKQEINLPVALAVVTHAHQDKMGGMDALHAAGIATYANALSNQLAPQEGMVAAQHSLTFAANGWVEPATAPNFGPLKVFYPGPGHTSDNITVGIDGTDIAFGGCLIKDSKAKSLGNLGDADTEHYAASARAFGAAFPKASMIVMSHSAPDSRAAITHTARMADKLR

MDA-MB-231 = assay: Cytotoxicity against human MDA-MB-231 cells after 72 hrs by MTT assay; assay type: cell-based; conditions: MDA-MB-231, 72 h
[3] = target: Beta-lactamase VIM-2 (Pseudomonas aeruginosa) (UniProt Q9K2N0); assay: Inhibition of beta-lactamase VIM-2 in Pseudomonas aeruginosa assessed as potentiation of meropenem-induced antibacterial activity by measuring meropenem MIC at 31 uM after 20 hrs by broth microdilution assay (meropenem alone = 32 to 64 mg/L)
[4] = Binding affinity to zinc assessed as dissociation constant for compound-metal complex
[5] = target: Metallo-beta-lactamase type 2 (Klebsiella pneumoniae) (UniProt C7C422); assay: Inhibition of NDM1 in Pseudomonas aeruginosa assessed as potentiation of meropenem-induced antibacterial activity by measuring meropenem MIC at 125 uM after 20 hrs by broth microdilution assay (meropenem alone = 32 to 64 mg/L)
[6] = target: Metallo-beta-lactamase type 2 (Klebsiella pneumoniae) (UniProt C7C422); assay: Inhibition of NDM1 in Pseudomonas aeruginosa assessed as potentiation of meropenem-induced antibacterial activity by measuring meropenem MIC at 16 uM after 20 hrs by broth microdilution assay (meropenem alone = 32 to 64 mg/L)
COLO357 = assay: Cytotoxicity against human Colo-357 cells after 72 hrs by MTT assay; assay type: cell-based; conditions: COLO357, 72 h
[7] = Cytotoxicity against human MiaPaCa cells after 72 hrs by MTT assay; assay type: cell-based; conditions: MIA PaCa-2, 72 h
[8] = target: Beta-lactamase VIM-2 (Pseudomonas aeruginosa) (UniProt Q9K2N0); assay: Inhibition of beta-lactamase VIM-2 in Pseudomonas aeruginosa assessed as potentiation of meropenem-induced antibacterial activity by measuring meropenem MIC at 16 uM after 20 hrs by broth microdilution assay (meropenem alone = 32 to 64 mg/L)
[9] = target: Metallo-beta-lactamase type 2 (Klebsiella pneumoniae) (UniProt C7C422); assay: Inhibition of NDM1 in Pseudomonas aeruginosa assessed as potentiation of meropenem-induced antibacterial activity by measuring meropenem MIC at 50 uM after 20 hrs by broth microdilution assay (meropenem alone = 32 to 64 mg/L)
[10] = target: Beta-lactamase VIM-2 (Pseudomonas aeruginosa) (UniProt Q9K2N0); assay: Inhibition of beta-lactamase VIM-2 in Pseudomonas aeruginosa assessed as potentiation of meropenem-induced antibacterial activity by measuring meropenem MIC at 50 uM after 20 hrs by broth microdilution assay (meropenem alone = 32 to 64 mg/L)
HepG2 = assay: Cytotoxicity against human HepG2 cells after 72 hrs by MTT assay; assay type: cell-based; conditions: HepG2, 72 h

Row | SMILES | MIC [1] [µg/mL] | MIC [2] [µg/mL] | IC50 (MDA-MB-231) [µM] | MIC [3] [µg/mL] | pKd [4] | MIC [5] [µg/mL] | MIC [6] [µg/mL] | IC50 (COLO357) [µM] | IC50 [7] [µM] | MIC [8] [µg/mL] | MIC [9] [µg/mL] | MIC [10] [µg/mL] | IC50 (HepG2) [µM]
1 | COC(=O)[C@@H](C)NC(=O)[C@@H](C)NC(=O)Cc1ccc(NC(=O)CN(CCN(Cc2ccccn2)Cc2ccccn2)Cc2ccccn2)cc1 | 1 | 0.125 | 4.1 | 4 | 12.3 | 0.125 | 16 | 5.4 | 5.9 | 32 |  |  | 
2 | Cl.NCC(=O)NCC(=O)NCCc1ccc(NC(=O)CN(CCN(Cc2ccccn2)Cc2ccccn2)Cc2ccccn2)cc1 |  |  | 15 |  | 12.3 |  |  | 24 | 21 |  |  |  | 
3 | C[C@@H](N)C(=O)N[C@H](C)C(=O)NCCc1ccc(-n2cc(CN(Cc3ccccn3)Cc3ccccn3)nn2)cc1 |  |  |  |  |  |  |  |  |  |  | 4 | 4 | 
4 | COC(=O)CNC(=O)CNC(=O)Cc1ccc(NC(=O)CN(CCN(Cc2ccccn2)Cc2ccccn2)Cc2ccccn2)cc1 | 1 | 2 | 7.8 | 2 | 12.3 | 0.125 | 16 | 12 | 12 | 32 |  |  | 
5 | CC(=O)N[C@@H](CCCCNC(=O)Cn1cc(CN(Cc2ccccn2)Cc2ccccn2)nn1)C(=O)NCB(O)O | 2 | 8 | 128 | 32 | 8.9 | 0.5 | 16 | 82 | 119 | 32 |  |  | 
6 | COC(=O)[C@@H](C)NC(=O)[C@@H](C)NC(=O)Cc1ccc(-n2cc(CN(Cc3ccccn3)Cc3ccccn3)nn2)cc1 |  |  | 125 |  | 8.9 |  |  | 105 | 119 |  | 4 | 8 | 
7 | c1ccc(CNCCN(Cc2ccccn2)Cc2ccccn2)nc1 | 0.5 | 0.125 |  | 1 |  | < 0.25 | 8 |  |  | 32 |  |  | 
8 | CN(CCN(Cc1ccccn1)Cc1ccccn1)CC(=O)N(C)C[C@H](O)[C@@H](O)[C@H](O)[C@H](O)CO |  | 0.25 |  | 1 |  |  | 32 |  |  | 32 |  |  | 118
9 | COC(=O)[C@@H](CCCCNC(=O)Cn1cc(CN(Cc2ccccn2)Cc2ccccn2)nn1)NC(=O)[C@@H](C)N |  |  | 127 |  | 8.9 |  |  | 114 | 106 |  |  |  | 
10 | C[C@@H](N)C(=O)N[C@H](C)C(=O)NCCc1ccc(NC(=O)CN(Cc2ccccn2)Cc2ccccn2)cc1.Cl | 16 |  | 127 |  | 7.6 | 8 |  | 21 | 118 |  |  |  | 
11 | COC(=O)[C@@H](C)NC(=O)[C@@H](C)NC(=O)CN(C)CCN(Cc1ccccn1)Cc1ccccn1 |  | 0.125 | 4.5 | 1 to 2 | 11.8 |  | 16 | 4.3 | 5.1 | 32 | 0.125 | 1 | 6.83
12 | OC1O[C@H](Cn2cc(CN(CCN(Cc3ccccn3)Cc3ccccn3)Cc3ccccn3)nn2)[C@H](O)[C@H](O)[C@H]1O (some centres undefined) |  | 0.125 |  | 2 |  |  | 8 |  |  | 32 |  |  | 1.7
13 | CC(=O)NCCCC[C@H](NC(=O)Cn1cc(CN(Cc2ccccn2)Cc2ccccn2)nn1)C(=O)NCB(O)O | 2 | 8 | 101 | 16 | 8.9 | 0.5 | 16 | 112 | 66 | 32 |  |  | 
14 | COC(=O)[C@H](C)NC(=O)[C@H](C)NC(=O)Cn1cc(CN(Cc2ccccn2)Cc2ccccn2)nn1 | 8 | 8 | 157 | 16 | 8.9 | 2 | 16 | 96 | 105 | 32 |  |  | 
15 | COC(=O)[C@@H](C)NC(=O)[C@@H](C)NC(=O)CN(Cc1ccccn1)Cc1ccccn1 | 16 |  | 184 |  | 7.6 | 8 to 16 |  | 90 | 98 |  |  |  | 
16 | COC(=O)[C@@H](C)NC(=O)[C@@H](C)NC(=O)Cn1cc(CN(Cc2ccccn2)Cc2ccccn2)nn1 | 2 | 16 | 152 | 64 | 8.9 | < 0.5 | 32 | 133 | 116 | 32 |  |  | 
17 | COC(=O)[C@@H](CCCCn1cc(CN(Cc2ccccn2)Cc2ccccn2)nn1)NC(=O)[C@@H](C)NC(C)=O | 4 |  | 131 |  | 8.9 | 1 |  | 101 | 128 |  |  |  | 
18 | CCOC(=O)Cc1ccc(-n2cc(CN(Cc3ccccn3)Cc3ccccn3)nn2)cc1 |  |  |  |  |  |  |  |  |  |  | 4 | 16 | 
19 | COC(=O)[C@@H](C)NC(=O)[C@H](CCCCNC(C)=O)NC(=O)Cn1cc(CN(Cc2ccccn2)Cc2ccccn2)nn1 |  |  |  |  |  |  |  |  |  |  | 8 | 32 | 
20 | COC(=O)[C@H](C)NC(=O)[C@H](C)NC(=O)Cc1ccc(NC(=O)CN(CCN(Cc2ccccn2)Cc2ccccn2)Cc2ccccn2)cc1 | 1 | 0.125 |  | 1 |  | 0.125 | 8 |  |  | 32 |  |  | 
21 | COC(=O)CNC(=O)[C@H](CCCCNC(=O)Cn1cc(CN(Cc2ccccn2)Cc2ccccn2)nn1)NC(C)=O |  |  |  |  |  |  |  |  |  |  | 4 | 16 | 
22 | COC(=O)CNC(=O)[C@H](CCCCNC(C)=O)NC(=O)Cn1cc(CN(Cc2ccccn2)Cc2ccccn2)nn1 |  |  |  |  |  |  |  |  |  |  | 8 | 32 | 
23 | COC(=O)CNC(=O)CNC(=O)Cc1ccc(-n2cc(CN(Cc3ccccn3)Cc3ccccn3)nn2)cc1 |  |  |  |  |  |  |  |  |  |  | 4 | 8 | 
24 | COC(=O)CNC(=O)CNC(=O)Cn1cc(CN(Cc2ccccn2)Cc2ccccn2)nn1 | 4 |  | 168 |  | 8.9 | 2 |  | 137 | 176 |  |  |  | 
25 | C[C@@H](N)C(=O)N[C@H](C)C(=O)NCCc1ccc(NC(=O)CN(CCN(Cc2ccccn2)Cc2ccccn2)Cc2ccccn2)cc1.Cl | 2 | 0.125 | 4.9 | 2 | 12.3 | 0.125 | 8 | 6.8 | 4.8 | 32 |  |  | 13.6
26 | COC(=O)[C@@H](C)NC(=O)[C@@H](C)NC(=O)CCC(=O)NCCc1ccc(NC(=O)CN(Cc2ccccn2)Cc2ccccn2)cc1 | 32 |  | 141 |  | 7.6 | 8 to 16 |  | 152 | 45 |  |  |  | 
27 | C[C@H](N)C(=O)N[C@@H](C)C(=O)NCCc1ccc(NC(=O)CN(CCN(Cc2ccccn2)Cc2ccccn2)Cc2ccccn2)cc1.Cl | 2 | 0.125 | 5.1 | 4 | 12.3 | 0.125 | 16 | 6.8 | 5.5 | 32 |  |  | 
28 | COC(=O)[C@@H](C)NC(=O)[C@H](CCCCNC(=O)Cn1cc(CN(Cc2ccccn2)Cc2ccccn2)nn1)NC(C)=O |  |  |  |  |  |  |  |  |  |  | 8 | 16 | 
29 | NCC(=O)NCC(=O)NCCc1ccc(-n2cc(CN(Cc3ccccn3)Cc3ccccn3)nn2)cc1 |  |  |  |  |  |  |  |  |  |  | 4 | 8 | 
